Measurements as given in patent US5294718A, “Piperidino-3,4-dihydrocarbostyril compounds” (Kissei Pharmaceutical Co., Ltd., priority 1993, dated 1994).
pIC50: −log10 of the molar value.

System: Adenosine Diphosphate (ADP)-Induced Platelet Aggregation
Experiment: Inhibitory Effect on Adenosine Diphosphate (ADP)-Induced Platelet Aggregation (turbidimetric method, platelet rich plasma)
Format: cell-based, Japanese White rabbit
Details: Oryctolagus cuniculus; rabbit platelet rich plasma; aggregation induced by 20 μM ADP; read-out: concentration at which the compound inhibited 50% of platelet aggregation (IC50)
Experimental: Platelet rich plasma (PRP) was prepared from Japanese White rabbit blood drawn from the carotid artery into a syringe containing 3.8% sodium citrate (1/10) volume, and centrifuged at 400×g for 10 min. Platelet aggregation in PRP was induced by 20 μM ADP and determined by the turbidimetric method using an aggregomater (Hema-Tracer: Niko Bioscience Co., Ltd., Japan).

| SMILES | pIC50 |
| --- | --- |
| COC(=O)c1cc2c(cc1N1CCC(O)CC1)CCC(=O)N2 [Compound 8, 6-(4-Hydroxypiperidino)-7-methoxycarbonyl-3,4-dihydrocarbostyril] | 4.38 |
| O=C1CCc2cc(N3CCC(O)CC3)c([N+](=O)[O-])cc2N1 [Compound 1, 6-(4-Hydroxypiperidino)-7-nitro-3,4-dihydrocarbostyril] | 4.43 |
| N#Cc1cc2c(cc1N1CCC(O)CC1)CCC(=O)N2 [Compound 7, 7-Cyano-6-(4-hydroxypiperidino)-3,4-dihydrocarbostyril] | 4.74 |
| O=C1CCc2cc(N3CCC(O)CC3)c(Br)cc2N1 [Compound 3, 7-Bromo-6-(4-hydroxypiperidino)-3,4-dihydrocarbostyril] | 4.59 |
| Cc1cc2c(cc1N1CCC(O)CC1)CCC(=O)N2 [Compound 9, 6-(4-Hydroxypiperidino)-7-methyl-3,4-dihydrocarbostyril] | 3.89 |

Continued by rising pIC50, values first:

| pIC50 | SMILES |
| --- | --- |
| 3.54 | O=C1CCc2c(ccc(N3CCC(O)CC3)c2Cl)N1 [Compound 6, 5-Chloro-6-(4-hydroxypiperidino)-3,4-dihydrocarbostyril] |
| 3.85 | O=C1CCc2c(ccc(N3CCC(O)CC3)c2Br)N1 [Compound 4, 5-Bromo-6-(4-hydroxypiperidino)-3,4-dihydrocarbostyril] |
| 4.26 | O=C1CCc2c(ccc(N3CCC(O)CC3)c2[N+](=O)[O-])N1 [Compound 2, 6-(4-Hydroxypiperidino)-5-nitro-3,4-dihydrocarbostyril] |
| 4.29 | O=C1CCc2cc(N3CCC(O)CC3)c(F)cc2N1 [Compound 10, 7-Fluoro-6-(4-hydroxypiperidino)-3,4-dihydrocarbostyril] |
| 4.41 | O=C1CCc2cc(N3CCC(O)CC3)c(C(F)(F)F)cc2N1 [Compound 12, 6-(4-Hydroxypiperidino)-7-trifluoromethyl-3,4-dihydrocarbostyril] |
| 4.43 | CCC(=O)OC1CCN(c2cc3c(cc2[N+](=O)[O-])NC(=O)CC3)CC1 [Compound 11, 6-(4-Propionyloxypiperidino)-7-nitro-3,4-dihydrocabostyril] |
| 4.59 | O=C1CCc2cc(N3CCC(O)CC3)c(Cl)cc2N1 [Compound 5, 7-Chloro-6-(4-hydroxypiperidino)-3,4-dihydrocarbostyril] |
